Results reported in PMC9324262, “Selective CDK9 Inhibition by Natural Compound Toyocamycin in Cancer Cells” (Cancers, 2022).
Entries after “also recorded” stand apart in the source; their conditions may differ.

Assays:
[1] = target: T1, CDK6/Cyclin D3 (Homo sapiens, UniProt Q00534); assay: in vitro kinase assay CDK6/Cyclin D3 (Kinase-Glo Plus); type: biochemical
T1 construct: purchased BPS Bioscience
Method: The in vitro enzymatic assays were conducted at BPS Bioscience. CDK9/Cyclin T1, CDK2/Cyclin 2A, CDK4/Cyclin D3, and CDK6/Cyclin D3 enzymatic activities were tested with an ATP Kinase-Glo Plus Luminescence kinase assay kit (Promega, V6073, Madison, WI, USA), while the CDK7/Cyclin H/MAT1 activities were tested using ADP-Glo Kinase (Promega, V6930). These assays measure kinase activity by quantifying the amount of ATP or ADP remaining in solution following a kinase reaction. The luminescent signal from the assay is correlated to the amount of ATP or ADP present and is inversely correlated to the kinase activity. The compounds were diluted to 10% DMSO and were added to the reaction so that the final concentration of DMSO was 1% in all reactions. All enzymatic reactions were conducted at 30 °C for 60 min. […] After the enzymatic reaction, the luminescence signal was measured using a BioTek Synergy 2 microplate reader (Agilent, Santa Clara, CA, USA). Kinase activity assays were performed in duplicate at each concentration and the percent of kinase activity was calculated as a ratio of luminescence intensities in the absence or in presence of the compounds. […] IC50 values were determined by the concentration causing a half-maximal percent activity (BPS Bioscience, San Diego, CA, USA).

[2] = system: YB5 cells; assay: anchorage-dependent clonogenic assay; type: cell-based, human; details: 2 weeks drug-free
Method: Two hundred YB5 cells were seeded per well in 6-well plates. On the following day, YB5 cells were treated with toyocamycin for 24 h or 72 h. Decitabine (10–50 nM for 72 h) was used as a positive control for the loss of clonogenic potential. Drugs and media were replaced each day. After treatment, media was removed. YB5 cells were grown in drug-free media for 2 weeks to allow visible colony formation prior to colony staining (0.5% methylene blue in 50% methanol). YB5 colonies were counted manually.

[3] = system: YB5 cells; assay: RNA sequencing, differential gene expression; type: cell-based, human
Method: Sequenced reads were aligned to the GRCh38.100 reference genome using STAR version 2.7.5a and gene-level counts were generated by setting the “quantMode GeneCounts” flag. Differential expression analysis was performed using EdgeR version 3.32.1.. The “filterByExpr” function in EdgeR was then used to determine genes with sufficiently large counts to be included in downstream differential expression testing. The filtered count matrix was then normalized using TMM normalization and differential expression testing was performed using the “glmTreat” function with the minimal required fold-change threshold set to “log2(1)” for significant differential gene expression (FDR < 0.1).

[4] = system: RNA-Pol II Ser2-P; assay: Western blot, RNA Pol II and phospho-Pol II Ser2; type: cell-based, human; details: 6 h
Method: YB5 cells were harvested in 50 mM Tris-HCl, 1% NP-40, 1 mM EDTA, 1 mM EGTA, 0.25% sodium deoxycholate, 150 mM NaCl, 50 mM sodium fluoride, and 1X Complete protease cocktail (Roche, Basel, Switzerland) with 1 mM PMSF. The total protein concentration was measured in all samples by standard BCA protocol (Pierce-23225, Thermo Scientific, Waltham, MA, USA) to ensure that an equal amount of protein was added to each sample. Protein extracts were run on 12% SDS–PAGE precast gels (Bio-Rad, Hercules, CA, USA, 345-0118). Proteins were transferred to polyvinylidene difluoride (PVDF) membranes in 10 mmol/L CAPS (pH-11) containing 10% methanol and detected by using specific primary antibodies, horseradish peroxidase–conjugated secondary antibodies (GE Healthcare, Chicago, IL, USA), and an enhanced chemiluminescence reagent (Pierce). PVDF membranes were incubated with specific primary antibodies (actin—A5441, Sigma, St. Louis, MO, USA; HA-tagged—H9608, Sigma; FLAG-tagged—F3165, Sigma). FLAG- and HA-tagged CDK9 plasmids were a generous gift from Dr Bassel E. Sawaya (Temple University). For CDK9 target modulation, HCT116 colon cancer cells were treated with toyocamycin or known CDK9 inhibitor BAY1251152 (Selleckchem, Houston, TX, USA). Whole cell extracts were obtained by lysing cells with 25 mM Tris (pH 7.3) and 1% sodium dodecyl sulfate (SDS). After sonication, total protein concentrations were determined using Bradford protein assay. The following primary antibodies were used to investigate the effect of CDK9 inhibition: Pol II against the N-term region (sc-55492, Santa Cruz, Dallas, TX, USA), Pol II against the C-term region (39097, Active motif, Carlsbad, CA, USA), Pol II phospho CTD ser2 (14-9802-82, Invitrogen, Waltham, MA, USA), Rb (ab181616, Abcam, Cambridge, UK), Rb phospho T826 (ab133446, Abcam, Cambridge, UK), CDK9 (ab39098, Abcam, Cambridge, UK), and actin (ab1801, Abcam, Cambridge, UK). Images were acquired with an Image Quant LAS4000 device from GE Healthcare Life Sciences. Band intensity quantifications were calculated using ImageJ software, edition 1.53 [27].

[5] = system: CDK9; assay: Western blot, CDK9 protein level; type: cell-based, human; details: HCT116, 50–500 nM, 6 h
Method: YB5 cells were harvested in 50 mM Tris-HCl, 1% NP-40, 1 mM EDTA, 1 mM EGTA, 0.25% sodium deoxycholate, 150 mM NaCl, 50 mM sodium fluoride, and 1X Complete protease cocktail (Roche, Basel, Switzerland) with 1 mM PMSF. The total protein concentration was measured in all samples by standard BCA protocol (Pierce-23225, Thermo Scientific, Waltham, MA, USA) to ensure that an equal amount of protein was added to each sample. Protein extracts were run on 12% SDS–PAGE precast gels (Bio-Rad, Hercules, CA, USA, 345-0118). Proteins were transferred to polyvinylidene difluoride (PVDF) membranes in 10 mmol/L CAPS (pH-11) containing 10% methanol and detected by using specific primary antibodies, horseradish peroxidase–conjugated secondary antibodies (GE Healthcare, Chicago, IL, USA), and an enhanced chemiluminescence reagent (Pierce). PVDF membranes were incubated with specific primary antibodies (actin—A5441, Sigma, St. Louis, MO, USA; HA-tagged—H9608, Sigma; FLAG-tagged—F3165, Sigma). FLAG- and HA-tagged CDK9 plasmids were a generous gift from Dr Bassel E. Sawaya (Temple University). […] After sonication, total protein concentrations were determined using Bradford protein assay. […] Band intensity quantifications were calculated using ImageJ software, edition 1.53 [27].

[6] = system: 451-Lu-BR human melanoma cells; assay: proliferation assay by cell counting; type: cell-based
Method: Proliferation assays were performed for 451-Lu-BR human melanoma cells in response to toyocamycin exposure. First, 20,000 cells were seeded per well in 24-well plates. Cells were treated with either DMSO (<0.01% final concentration) or various toyocamycin concentrations. Cell proliferation was assessed by cell counting using a hemocytometer (n = 3) after 24, 48, and 72 h of treatment. The data were plotted as the total number of cells in response to toyocamycin for each treatment duration relative to DMSO treated cells.

T1 sequence (Q00534 whole entry): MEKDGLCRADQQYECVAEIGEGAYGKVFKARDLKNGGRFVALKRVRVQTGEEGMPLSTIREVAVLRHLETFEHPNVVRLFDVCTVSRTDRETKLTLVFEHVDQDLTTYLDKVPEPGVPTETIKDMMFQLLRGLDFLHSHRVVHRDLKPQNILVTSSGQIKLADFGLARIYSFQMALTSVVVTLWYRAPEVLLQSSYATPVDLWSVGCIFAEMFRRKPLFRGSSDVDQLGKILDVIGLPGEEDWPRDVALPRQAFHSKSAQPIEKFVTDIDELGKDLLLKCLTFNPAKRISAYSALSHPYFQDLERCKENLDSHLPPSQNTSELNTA
T1 sequence (P30281 whole entry partner): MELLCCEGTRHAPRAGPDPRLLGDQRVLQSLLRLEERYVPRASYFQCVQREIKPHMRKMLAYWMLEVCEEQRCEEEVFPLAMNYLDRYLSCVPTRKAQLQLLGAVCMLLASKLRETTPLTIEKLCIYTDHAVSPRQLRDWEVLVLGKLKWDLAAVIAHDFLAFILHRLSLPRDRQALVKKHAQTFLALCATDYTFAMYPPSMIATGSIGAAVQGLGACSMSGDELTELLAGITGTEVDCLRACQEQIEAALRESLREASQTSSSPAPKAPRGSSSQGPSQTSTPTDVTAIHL

Structure (SMILES): N#Cc1cn([C@@H]2O[C@H](CO)[C@@H](O)[C@H]2O)c2ncnc(N)c12 [toyocamycin, 7-Deaza-7-cyanoadenosine]
- IC50 [1]: > 10 µM
- colony formation ([2]; 10 nM, 24 h treatment): completely abrogated colony formation; also recorded: full eradication of the clonogenic potential
- colony formation ([2]; 10–50 nM, 72 h treatment): fully abolished colony formation
- gene downregulation ([3]; 250 nM, 2 h): 3.5%
- number of genes downregulated ([3]; 250 nM, 2 h): 513 genes
- number of genes upregulated ([3]; 250 nM, 2 h): 24 genes
- number of genes downregulated ([3]; 250 nM, 10 h): 2299 genes
- number of genes upregulated ([3]; 250 nM, 10 h): 1999 genes
- level of differentially expressed genes ([3]; 250 nM, 10 h to 96 h): up to 60%
- number of genes downregulated ([3]; 250 nM, 24 h): 3651 genes
- number of genes upregulated ([3]; 250 nM, 24 h): 3387 genes
- number of genes downregulated ([3]; 250 nM, 48 h): 4377 genes
- number of genes upregulated ([3]; 250 nM, 48 h): 4449 genes
- number of genes downregulated ([3]; 250 nM, 96 h): 5061 genes
- number of genes upregulated ([3]; 250 nM, 96 h): 5050 genes
- endogenous retrovirus (ERV) expression ([3]; 24 h treatment): induced significant ERV expression
- RNA-Pol II ser 2 phosphorylation ([4]; HCT116, 350–500 nM): significantly reduced
- RNA Pol II band intensity, Pol II C-terminal antibody ([4]; HCT116, above 350 nM): reduced the RNA Pol II band intensity
- CDK9 levels [5]: did not change
- cell proliferation ([6]; 72 h treatment): full proliferation arrest
- cell proliferation ([6]; low doses, 24 h treatment): did not reduce cell proliferation
